Structures are written as SMILES. ≈ marks a conversion by molar mass, not a printed value. Where a SMILES comes first, the peptide text is derived from it.

For one data set, the system named is horse red blood cells. Description: Haemolysis assay and therapeutic index. As to conditions: 2% horse red blood cells in PBS, 2 h, 37 °C, absorbance 570 nm; best-fitted curve.
The test system of data set [1] is Candida albicans (NCPF 1467). Format: cell-based. The following applies: for MBC: NCPF 1467, 18 h; for MIC: NCPF 1467, 24 h. The method, then: (§1) The minimal inhibitory concentrations (MICs) and minimum bactericidal concentrations (MBCs) were evaluated to determine the antimicrobial activity of synthetic peptides. The microorganisms employed in the study are two kinds of Gram-negative bacteria, Escherichia coli (NCTC 10418) and Pseudomonas aeruginosa (ATCC 27853), three kinds of Gram-positive bacteria, Staphylococcus aureus (NCTC 10788), Methicillin-resistant Staphylococcus aureus (MRSA, ATCC 12493) and Enterococcus faecalis (NCTC 12697) and a yeast, Candida albicans (NCPF 1467), as indicated previously. […] The sterilised broth medium was used as the positive control and the microorganism cultured in the medium only was treated as the negative control. […] The MBC results were defined as the lowest bactericidal concentrations of peptide. The antimicrobial activity of peptides was tested by monitoring the absorbance at 550 nm using an ELISA plate reader (Biolise BioTek EL808, Winooski, VT, USA).

Data set [2] concerns Staphylococcus aureus (NCTC 10788). Format: cell-based. The following applies: for MBC: NCTC 10788, 18 h; for MIC: NCTC 10788, 24 h. How it is done: as §1
The subject of data set [3] is Enterococcus faecalis (NCTC 12697). Format: cell-based. As to conditions: for MBC: NCTC 12697, 18 h; for MIC: NCTC 12697, 24 h. The method, then: as §1
Data set [4] relates to Escherichia coli (NCTC 10418). The format is cell-based. The following applies: for MBC: NCTC 10418, 18 h; for MIC: NCTC 10418, 24 h. The method, then: as §1
Data set [5] has as its system Methicillin-resistant Staphylococcus aureus (MRSA, ATCC 12493). The format is cell-based. The following applies: for MBC: ATCC 12493, 18 h; for MIC: ATCC 12493, 24 h. The method, then:
as §1

For data set [6], the system named is Pseudomonas aeruginosa (ATCC 27853). Format: cell-based. As to conditions: for MBC: ATCC 27853, 18 h; for MIC: ATCC 27853, 24 h. How it is done:
as §1

Experimental for horse red blood cells: The haemolytic activity of synthetic peptides was determined using the horse red blood cells that were extracted from the de-fibroblast whole horse blood (TCS Biosciences Ltd. Buckingham, UK). […] Briefly, the red blood cells were harvested and washed using PBS until all broken red blood cells were removed. Then, a 2% cell suspension was prepared using PBS. The peptide concentrations were set as antimicrobial activity assay and mixed with the red blood cells in the microcentrifuge tubes. After a 2 h-incubation at 37 °C, the tubes were centrifuged and the suspension was transferred into a clear 96 well plate. The absorbance of released haemoglobin in the suspension was detected at 570 nm by a plate reader. Besides, the red blood cells treated with PBS and 1% Triton X-100 were used as the negative and positive controls, respectively. […] The therapeutic index (TI) was further determined as below:(1) TI=HC50/product of n MICsn,

Regarding `CC[C@H](C)[C@H](NC(=O)CNC(=O)[C@@H]1CCCN1C(=O)[C@H](CC(C)C)NC(=O)[C@@H](N)Cc1ccccc1)C(=O)N[C@@H](CC(C)C)C(=O)N[C@@H](CCCCN)C(=O)N[C@H](C(=O)N[C@@H](C)C(=O)N[C@@H](C)C(=O)N[C@@H](CCCCN)C(N)=O)C(C)C` [OSb] (H-FLPGILKVAAK-NH2), in the data set with horse red blood cells, the “HC50 (concentration causing 50% haemolysis of the red blood cells)” value is on record as 381.4 µM. In addition, the MBC in data set [1], in data set [2], in data set [3], in data set [4], in data set [5] and in data set [6] was greater than 512 µM in each case. In addition, the MIC in data set [1] was 512 µM (≈ 592 µg/mL); in data set [2], 256 µM (≈ 296 µg/mL); in data set [3], greater than 512 µM; in data set [4] it was greater than 512 µM; in data set [5], greater than 512 µM; in data set [6], greater than 512 µM.

As to `CC[C@H](C)[C@H](NC(=O)[C@H](CCCCN)NC(=O)[C@@H]1CCCN1C(=O)[C@H](CC(C)C)NC(=O)[C@@H](N)Cc1ccccc1)C(=O)N[C@@H](CC(C)C)C(=O)N[C@@H](CCCCN)C(=O)N[C@H](C(=O)N[C@@H](C)C(=O)N[C@@H](C)C(=O)N[C@@H](CCCCN)C(N)=O)C(C)C` [OSc] (H-FLPKILKVAAK-NH2), in the data set on horse red blood cells, the “HC50 (concentration causing 50% haemolysis of the red blood cells)” value is on record as greater than 512 µM. Also, the MBC in data set [1], in data set [2], in data set [3], in data set [4], in data set [5] and in data set [6] was greater than 512 µM in each case. Also, the MIC is 256 µM (≈ 314 µg/mL) in data set [1]; 256 µM (≈ 314 µg/mL) in data set [2]; greater than 512 µM in data set [3]; greater than 512 µM in data set [4]; greater than 512 µM in data set [5]; greater than 512 µM in data set [6].
